Data on 27 compounds can be found in patent US8691855B2, “Compounds, isomer thereof, or pharmaceutically acceptable salts thereof as vanilloid receptor antagonist and pharmaceutical compositions containing the same” (Amorepacific Corporation, priority 2008, dated 2014).

T1 sequence (O35433 whole entry): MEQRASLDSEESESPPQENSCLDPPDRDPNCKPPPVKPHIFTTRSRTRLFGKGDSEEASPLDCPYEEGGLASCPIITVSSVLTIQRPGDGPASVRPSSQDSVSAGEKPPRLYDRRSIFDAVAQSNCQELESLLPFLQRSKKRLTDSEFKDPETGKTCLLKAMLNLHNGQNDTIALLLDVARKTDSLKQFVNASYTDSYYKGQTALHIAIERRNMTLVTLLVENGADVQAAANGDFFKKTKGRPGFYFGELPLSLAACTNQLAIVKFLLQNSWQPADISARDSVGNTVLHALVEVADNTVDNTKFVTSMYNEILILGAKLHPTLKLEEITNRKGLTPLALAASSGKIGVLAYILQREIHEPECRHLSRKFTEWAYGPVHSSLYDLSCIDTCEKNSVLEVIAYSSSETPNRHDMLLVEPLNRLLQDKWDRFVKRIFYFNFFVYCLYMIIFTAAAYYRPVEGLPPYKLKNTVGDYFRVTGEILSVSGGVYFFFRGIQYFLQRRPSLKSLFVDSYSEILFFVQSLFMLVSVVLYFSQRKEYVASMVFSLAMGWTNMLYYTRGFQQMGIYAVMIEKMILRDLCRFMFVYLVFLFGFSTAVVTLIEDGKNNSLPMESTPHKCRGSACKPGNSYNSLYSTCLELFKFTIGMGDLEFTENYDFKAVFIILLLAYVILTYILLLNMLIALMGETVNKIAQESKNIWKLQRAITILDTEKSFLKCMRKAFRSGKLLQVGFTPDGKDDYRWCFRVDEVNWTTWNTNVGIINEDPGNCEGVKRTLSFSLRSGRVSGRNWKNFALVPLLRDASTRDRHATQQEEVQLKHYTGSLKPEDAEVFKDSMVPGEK

The first experiment has as its target T1, vanilloid receptor (Rattus norvegicus, UniProt O35433).
T1 construct: DRG nerve cells from the primary culture of 2 days were equilibrated; endogenous in cells; host or cells: primary culture of dorsal root ganglion neurons from neonatal SD rats
The experiment can be described thus: 45Ca influx test (antagonist calcium uptake test) in rat DRG neurons stimulated with capsaicin. Conditions: DRG neuron; @0.3 μM; neonatal SD rat DRG neurons; capsaicin 0.5 μM; read-out: Antagonist Calcium Uptake Test, percent inhibition of capsaicin response. The format is cell-based. An outline of the steps:
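Neonatal SD rat DRG neurons, cultured 2 days with NGF 200 ng/ml, exposed to test compound plus 0.5 μM capsaicin and 45Ca (10 μCi/ml) in HEPES-buffered Ca/Mg-free HBSS, pH 7.4, 10 min at room temperature. Influx counted by scintillation; activity as percent inhibition of the 0.5 μM capsaicin maximal response.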
Regarding `C=Cc1cc(CNC(=O)c2ccc(-c3cccc(C(F)(F)F)c3)o2)cc(F)c1NS(C)(=O)=O` [Example 105, 5-(3-Trifluoromethyl-phenyl)-furan-2-carboxylic acid 3-fluoro-4-methanesulfonylamino-5-vinyl-benzylamide], the inhibition (in general, the percentage by which the read-out fell short of the control) at 0.3 µM was 96%.

The experiment is the same for the next values; noted with them: DRG neuron; @10 μM; neonatal SD rat DRG neurons; capsaicin 0.5 μM; read-out: Antagonist Calcium Uptake Test, percent inhibition of capsaicin response.
Turning to `C[C@@H](NC(=O)c1csc(Cc2cccc(C(F)(F)F)c2)n1)c1cc(F)c(NS(C)(=O)=O)c(F)c1` (stereo in doubt) [Example 20, 2-(3-Trifluoromethyl-benzyl)-thiazole-4-carboxylic acid [1-(3,5-difluoro-4-methanesulfonylamino-phenyl)-ethyl]-amide], the inhibition at 10 µM was 67%.

Still in this experiment, the particulars now being: neonatal SD rat DRG neurons; capsaicin 0.5 μM; 45Ca.
On to `C[C@@H](NC(=O)c1coc(N2CCCC3CCCCC32)n1)c1cc(F)c(NS(C)(=O)=O)c(F)c1` (stereo partly drawn) [Example 19, 2-(Octahydro-quinolin-1-yl)-oxazole-4-carboxylic acid [1-(3,5-difluoro-4-methanesulfonylamino-phenyl)-ethyl]-amide], for which the half-inhibitory concentration (IC50) (as a rule, the point on the concentration scale where inhibition reaches its midpoint) was 610 nM. On the same count and under the same terms, the result for `CS(=O)(=O)Nc1c(F)cc(CNC(=O)c2ccc(-c3ccc(C(F)(F)F)cc3)s2)cc1F` [Example 60, 5-(4-Trifluoromethyl-phenyl)-thiophene-2-carboxylic acid 3,5-difluoro-4-methanesulfonylamino-benzylamide] reads 6100 nM. Still for that read-out and setting: the result for `C[C@@H](NC(=O)c1coc(-c2cccc3ccccc23)n1)c1cc(F)c(NS(C)(=O)=O)c(F)c1` [Example 88, 2-Naphthalen-1-yl-oxazole-4-carboxylic acid [1-(3,5-difluoro-4-methanesulfonylamino-phenyl)-ethyl]-amide] reads 720 nM; that for `C[C@@H](NC(=O)c1csc(-c2cc(C3CC3)cc(C3CC3)c2)n1)c1cc(F)c(NS(C)(=O)=O)c(F)c1` (stereo in doubt) [Example 107, 2-(3,5-Dicyclopropyl-phenyl)-thiazole-4-carboxylic acid [1-(3,5-difluoro-4-methanesulfonylamino-phenyl)-ethyl]-amide], 3000 nM; that for `Cc1ccc(C(C)C)cc1Oc1nc(C(=O)N[C@H](C)c2cc(F)c(NS(C)(=O)=O)c(F)c2)co1` [Example 47, 2-(5-Isopropyl-2-methyl-phenoxy)-oxazole-4-carboxylic acid [1-(3,5-difluoro-4-methanesulfonylamino-phenyl)-ethyl]-amide], 620 nM. With `C[C@@H](NC(=O)c1coc(-c2ccc(Cl)c(Cl)c2)n1)c1cc(F)c(NS(C)(=O)=O)c(F)c1` [Example 86, 2-(3,4-Dichloro-phenyl)-oxazole-4-carboxylic acid [1-(3,5-difluoro-4-methanesulfonylamino-phenyl)-ethyl]-amide], the IC50 was determined as 1000 nM. Same read-out and setting: with `C[C@@H](NC(=O)c1coc(Oc2cccc(Cl)c2)n1)c1cc(F)c(NS(C)(=O)=O)c(F)c1` [Example 16, 2-(3-Chloro-phenoxy)-oxazole-4-carboxylic acid [1-(3,5-difluoro-4-methanesulfonylamino-phenyl)-ethyl]-amide] the figure was 770 nM; with `C[C@@H](NC(=O)c1ccc(-c2ccc(F)c(C(F)(F)F)c2)o1)c1cc(F)c(NS(C)(=O)=O)c(F)c1` [Example 124, 5-(4-Fluoro-3-trifluoromethyl-phenyl)-furan-2-carboxylic acid [1-(3,5-difluoro-4-methanesulfonylamino-phenyl)-ethyl]-amide], 42 nM; with `C[C@@H](NC(=O)c1csc(Cc2ccc(C(C)(C)C)cc2)n1)c1cc(F)c(NS(C)(=O)=O)c(F)c1` [Example 10, (R)—N-[1-(3,5-Difluoro-4-methanesulfonylamino-phenyl)-ethyl]-2-(4-t-butylbenzyl)-thiazole-4-amide], 6400 nM. As for `Cc1ccc(C2CCCCC2)c(Oc2nc(C(=O)N[C@H](C)c3cc(F)c(NS(C)(=O)=O)c(F)c3)co2)c1` [Example 50, 2-(2-Cyclohexyl-5-methyl-phenoxy)-oxazole-4-carboxylic acid [1-(3,5-difluoro-4-methanesulfonylamino-phenyl)-ethyl]-amide], the 50% inhibitory concentration (IC50) was 1100 nM. Consider `C[C@@H](NC(=O)c1coc(Oc2cccc3c2CCC3C(F)(F)F)n1)c1cc(F)c(NS(C)(=O)=O)c(F)c1` (stereo in doubt) [Example 57, 2-(1-Trifluoromethyl-indan-4-yloxy)-oxazole-4-carboxylic acid [1-(3,5-difluoro-4-methanesulfonylamino-phenyl)-ethyl]-amide], for which the half-inhibitory concentration (IC50) amounted to 330 nM.

In the case of `C[C@@H](NC(=O)c1coc(-c2ccc(-c3ccccc3)cc2)n1)c1cc(F)c(NS(C)(=O)=O)c(F)c1` [Example 78, 2-Biphenyl-4-yl-oxazole-4-carboxylic acid [1-(3,5-difluoro-4-methanesulfonylamino-phenyl)-ethyl]-amide], the IC50 is > 10000 nM. With `COc1cc(-c2nc(C(=O)N[C@H](C)c3cc(F)c(NS(C)(=O)=O)c(F)c3)co2)cc(C(F)(F)F)c1` [Example 97, 2-(3-Methoxy-5-trifluoromethyl-phenyl)-oxazole-4-carboxylic acid [1-(3,5-difluoro-4-methanesulfonylamino-phenyl)-ethyl]-amide], the concentration for half-maximal inhibition (IC50) turned out to be 1400 nM. On the same count and under the same terms, with `CSc1cccc(-c2nc(C(=O)N[C@H](C)c3cc(F)c(NS(C)(=O)=O)c(F)c3)co2)c1` [Example 98, 2-(3-Methylsulfanyl-phenyl)-oxazole-4-carboxylic acid [1-(3,5-difluoro-4-methanesulfonylamino-phenyl)-ethyl]-amide] the figure was 1700 nM. Consider `CS(=O)(=O)Nc1c(F)cc(CNC(=O)c2ccc(-c3cccc(C(F)(F)F)c3)o2)cc1C#N` [Example 121, 5-(3-Trifluoromethyl-phenyl)-furan-2-carboxylic acid 3-cyano-5-fluoro-4-methanesulfonylamino-benzylamide], for which the IC50 was found to be 330 nM. Consider `COc1ccc(-c2nc(C(=O)N[C@H](C)c3cc(F)c(NS(C)(=O)=O)c(F)c3)co2)cc1C(F)(F)F` (stereo in doubt) [Example 96, 2-(4-Methoxy-3-trifluoromethyl-phenyl)-oxazole-4-carboxylic acid [1-(3,5-difluoro-4-methanesulfonylamino-phenyl)-ethyl]-amide], for which the IC50 worked out at 1300 nM. The same measure, in the same setting: with `CCCc1ccc(C(F)(F)F)cc1Oc1nc(C(=O)N[C@H](C)c2cc(F)c(NS(C)(=O)=O)c(F)c2)co1` [Example 41, 2-(2-Propyl-5-trifluoromethyl-phenoxy)-oxazole-4-carboxylic acid [1-(3,5-difluoro-4-methanesulfonylamino-phenyl)-ethyl]-amide] the figure was 190 nM; with `C[C@@H](NC(=O)c1coc(Oc2cccc3c2OC(C)(C)C3)n1)c1cc(F)c(NS(C)(=O)=O)c(F)c1` (stereo in doubt) [Example 34, 2-(2,2-Dimethyl-2,3-dihydro-benzofuran-7-yloxy)-oxazole-4-carboxylic acid [1-(3,5-difluoro-4-methanesulfonylamino-phenyl)-ethyl]-amide], 400 nM.

On to `C[C@@H](NC(=O)c1coc(Oc2cccc(C3CCC3)c2)n1)c1cc(F)c(NS(C)(=O)=O)c(F)c1` [Example 56, 2-(3-Cyclobutyl-phenoxy)-oxazole-4-carboxylic acid [1-(3,5-difluoro-4-methanesulfonylamino-phenyl)-ethyl]-amide], for which the half-maximal inhibitory concentration (IC50) was 560 nM.

As for `C[C@@H](NC(=O)c1coc(-c2cccc(C(F)(F)F)c2F)n1)c1cc(F)c(NS(C)(=O)=O)c(F)c1` (stereo in doubt) [Example 79, 2-(2-Fluoro-3-trifluoromethyl-phenyl)-oxazole-4-carboxylic acid [1-(3,5-difluoro-4-methanesulfonylamino-phenyl)-ethyl]-amide], the 50% inhibitory concentration (IC50) stood at 990 nM.

Regarding `C[C@@H](NC(=O)c1ccc(-c2cccc(C(F)(F)F)c2)o1)c1ccc(NS(C)(=O)=O)c(F)c1` [Example 111, 5-(3-Trifluoromethyl-phenyl)-furan-2-carboxylic acid [1-(3-fluoro-4-methanesulfonylamino-phenyl)-ethyl]-amide], the IC50 was 240 nM. In the case of `CS(=O)(=O)Nc1c(F)cc(CNC(=O)c2csc(Oc3ccc(C(F)(F)F)cc3)n2)cc1F` [Example 14, 2-(4-Trifluoromethyl-phenoxy)-thiazole-4-carboxylic acid 3,5-difluoro-4-methanesulfonylamino-benzylamide], the IC50 is 1500 nM. For the compound `C[C@@H](NC(=O)c1coc(Oc2cccc(C#N)c2)n1)c1cc(F)c(NS(C)(=O)=O)c(F)c1` [Example 17, 2-(3-Cyano-phenoxy)-oxazole-4-carboxylic acid [1-(3,5-difluoro-4-methanesulfonylamino-phenyl)-ethyl]-amide], the IC50 was > 10000 nM. With `CS(=O)(=O)Nc1c(F)cc(CNC(=O)c2ccc(-c3cccc(C(F)(F)F)c3)s2)cc1F` [Example 65, 5-(3-Trifluoromethyl-phenyl)-thiophene-2-carboxylic acid 3,5-difluoro-4-methanesulfonylamino-benzylamide], the IC50 was 2700 nM. For `C[C@@H](NC(=O)c1coc(Oc2ccc(C(C)(C)C)cc2)n1)c1cc(F)c(NS(C)(=O)=O)c(F)c1` [Example 7, 2-(4-tert-Butyl-phenoxy)-oxazole-4-carboxylic acid [1-(3,5-difluoro-4-methanesulfonylamino-phenyl)-ethyl]-amide], the half-maximal inhibitory concentration (IC50) turned out to be 4300 nM.
